What was measured:
[1] = biological target: T1, TcGr20 (gustatory receptor 20) (Tribolium castaneum, UniProt D2A5I4); experiment: two-electrode voltage clamp in Xenopus oocytes expressing TcGr20, dose-response; type: cell-based
T1 construct: ORF of TcGr20 expressed in Xenopus oocytes
T1 sequence (D2A5I4 1-388): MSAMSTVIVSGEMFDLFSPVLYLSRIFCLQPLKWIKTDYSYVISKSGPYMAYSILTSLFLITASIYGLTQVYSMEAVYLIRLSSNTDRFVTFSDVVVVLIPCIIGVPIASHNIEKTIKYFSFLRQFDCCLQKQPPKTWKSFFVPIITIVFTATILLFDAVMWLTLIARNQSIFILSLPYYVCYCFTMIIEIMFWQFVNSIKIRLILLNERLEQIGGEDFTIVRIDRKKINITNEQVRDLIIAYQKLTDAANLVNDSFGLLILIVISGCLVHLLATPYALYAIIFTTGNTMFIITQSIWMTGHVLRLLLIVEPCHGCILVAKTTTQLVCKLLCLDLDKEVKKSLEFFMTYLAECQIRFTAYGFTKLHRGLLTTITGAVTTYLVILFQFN

[2] = biological target: T1, TcGr20 (gustatory receptor 20); experiment: two-electrode voltage clamp in Xenopus oocytes expressing TcGr20, dose-response; water-injected control negative; type: cell-based

OC[C@@H](O)[C@@H](O)[C@H](O)[C@@H](O)CO [sorbitol]
EC50 [1]: 90.6 ± 10.4 mM

OC[C@@H](O)[C@@H](O)[C@H](O)[C@H](O)CO [mannitol]
EC50 [2]: 72.6 ± 9.1 mM

— article PMC5638539, “A mannitol/sorbitol receptor stimulates dietary intake in Tribolium castaneum” (PLoS ONE, 2017)
